Assay results: US9976165B2, “Methods for increasing molecular diversity of polyketides and non-ribosomal proteins” (Isomerase Therapeutics Limited, priority 2013, dated 2018)

Key:
[1] = Murine PLP T cell proliferation assay (PLP assay); assay type: cell-based; conditions: Mus musculus, off-target (mTOR-driven) immunosuppressive potency
Method: Activity of mTOR inhibitors was measured in two different antigen-specific murine T cell proliferation assays (as described in Young et al., 2000). […] In a second type of assay, lymph nodes obtained from PLP TCR transgenic mice are simulated with PLP peptide in culture in a primary stimulation assay.

[2] = biological target: FKBP12 (Homo sapiens, UniProt P62942); test: FKBP12 PPIase assay (inhibition of peptidyl-prolyl isomerase activity); assay type: biochemical; conditions: 6 concentrations in duplicate, data fitted to a Ki curve
FKBP12, sequence (P62942 whole entry, species assumed): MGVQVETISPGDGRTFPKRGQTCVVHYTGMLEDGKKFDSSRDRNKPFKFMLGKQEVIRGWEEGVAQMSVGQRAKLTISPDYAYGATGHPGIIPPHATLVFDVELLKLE
Method: The first order rate equation was fitted to the absorbance data to obtain a rate constant. A catalytic rate (Kenz) was calculated from the enzymatic rate minus the background rate. Kenz v inhibitor concentration was plotted to obtain the Ki value. […] All compounds were assayed at 6 concentrations in duplicate and the data fitted to a Ki curve to afford a Ki value with standard error (SE).

Structure (SMILES): CO[C@H]1C[C@@H]2CC[C@@H](C)[C@@](O)(O2)C(=O)C(=O)N2CCCC[C@H]2C(=O)OC([C@H](C)C[C@H]2CC[C@H](O)CC2)C[C@@H](O)CC(=O)[C@H](C)CC[C@H](C)/C=C/C=C/C=C/1C (stereo partly drawn) [Compound 4]
- IC50 [1]: 4460 nM

Structure (SMILES): CO[C@H]1C[C@@H]2CC[C@@H](C)[C@](O)(CC(=O)N3CCCC[C@H]3C(=O)OC([C@H](C)C[C@@H]3CC[C@@H](O)[C@H](O)C3)C/C=C(\C)[C@@H](O)CC(=O)[C@H](C)CC[C@H](C)/C=C/C=C/C=C/1C)O2 (stereo partly drawn) [Compound 9]
- Ki [2]: 180 nM

Structure (SMILES): CO[C@H]1C[C@@H]2CC[C@@H](C)[C@@](O)(O2)C(=O)C(=O)N2CCCC[C@H]2C(=O)O[C@H](/C(C)=C/C[C@H](O)[C@H](C)C[C@H]2CC[C@H](O)CC2)CC(=O)[C@H](C)C[C@H](C)/C=C/C=C/C=C/1C [Compound 21]
- Ki [2]: 95 nM
